This is an account of results in ChEMBL document CHEMBL3817725, “Design, synthesis, and biological evaluation of a novel series of peripheral-selective noradrenaline reuptake inhibitors - Part 3” (Bioorg Med Chem, 2016).

A value given as a limit tells only on which side of the number the result lay.

For data set [1], the species on record is Homo sapiens. The data set is described as follows: Selectivity ratio of IC50 for human SERT to IC50 for human NET.
In data set [2] the target is Sodium-dependent dopamine transporter (Homo sapiens, UniProt Q01959). The data set is described as follows: Inhibition of human DAT expressed in CHO cells assessed as [3H]-dopamine reuptake incubated for 60 mins measured after 30 mins by topcount method. The data set is classed as cell-based.
Chain of Sodium-dependent dopamine transporter (Q01959 whole entry): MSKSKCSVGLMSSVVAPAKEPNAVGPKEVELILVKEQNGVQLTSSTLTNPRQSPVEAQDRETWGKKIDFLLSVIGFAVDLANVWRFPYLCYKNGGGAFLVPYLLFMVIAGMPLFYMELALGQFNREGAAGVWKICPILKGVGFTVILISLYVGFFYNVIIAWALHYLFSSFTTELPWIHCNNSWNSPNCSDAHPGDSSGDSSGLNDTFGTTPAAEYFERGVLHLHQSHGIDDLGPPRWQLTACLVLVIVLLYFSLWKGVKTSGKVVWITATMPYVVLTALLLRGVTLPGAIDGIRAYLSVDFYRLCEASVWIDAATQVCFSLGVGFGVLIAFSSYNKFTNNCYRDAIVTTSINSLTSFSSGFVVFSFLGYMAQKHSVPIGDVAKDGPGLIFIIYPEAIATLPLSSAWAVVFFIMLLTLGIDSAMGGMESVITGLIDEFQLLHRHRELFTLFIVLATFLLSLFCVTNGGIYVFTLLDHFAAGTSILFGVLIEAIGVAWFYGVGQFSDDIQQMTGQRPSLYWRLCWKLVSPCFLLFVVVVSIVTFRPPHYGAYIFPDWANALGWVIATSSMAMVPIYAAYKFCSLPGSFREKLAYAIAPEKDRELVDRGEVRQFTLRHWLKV
For data set [3], the target named is Sodium-dependent serotonin transporter (Homo sapiens, UniProt P31645). The data set is described as follows: Inhibition of human SERT expressed in CHO cells assessed as [3H]-5-hydroxytryptamine reuptake incubated for 20 mins measured after 30 mins by topcount method. The data set is classed as cell-based.
Chain of Sodium-dependent serotonin transporter (P31645 whole entry): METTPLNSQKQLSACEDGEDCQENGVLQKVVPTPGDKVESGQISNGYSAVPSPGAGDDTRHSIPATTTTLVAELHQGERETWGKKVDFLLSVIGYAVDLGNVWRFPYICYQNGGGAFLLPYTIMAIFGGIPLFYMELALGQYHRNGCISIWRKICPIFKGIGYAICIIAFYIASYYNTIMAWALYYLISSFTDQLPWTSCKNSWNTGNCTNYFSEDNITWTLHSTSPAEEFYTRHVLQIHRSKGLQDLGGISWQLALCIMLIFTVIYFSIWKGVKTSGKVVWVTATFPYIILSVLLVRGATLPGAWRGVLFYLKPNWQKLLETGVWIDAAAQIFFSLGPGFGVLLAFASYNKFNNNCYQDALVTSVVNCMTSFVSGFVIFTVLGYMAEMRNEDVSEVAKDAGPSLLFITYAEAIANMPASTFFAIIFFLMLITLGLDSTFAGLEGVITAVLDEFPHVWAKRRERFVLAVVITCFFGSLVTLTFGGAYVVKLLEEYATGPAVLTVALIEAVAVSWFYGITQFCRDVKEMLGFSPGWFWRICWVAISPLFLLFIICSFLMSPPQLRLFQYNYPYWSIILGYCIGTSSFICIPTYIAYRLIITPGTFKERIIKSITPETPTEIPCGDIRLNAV
Data set [4] deals with Sodium-dependent noradrenaline transporter (Homo sapiens, UniProt P23975). Kind of data set: Inhibition of human NET expressed in CHO cells assessed as [3H]-Norepinephrine reuptake incubated for 45 mins measured after 30 mins by topcount method. The data set is classed as cell-based.
Chain of Sodium-dependent noradrenaline transporter (P23975 whole entry): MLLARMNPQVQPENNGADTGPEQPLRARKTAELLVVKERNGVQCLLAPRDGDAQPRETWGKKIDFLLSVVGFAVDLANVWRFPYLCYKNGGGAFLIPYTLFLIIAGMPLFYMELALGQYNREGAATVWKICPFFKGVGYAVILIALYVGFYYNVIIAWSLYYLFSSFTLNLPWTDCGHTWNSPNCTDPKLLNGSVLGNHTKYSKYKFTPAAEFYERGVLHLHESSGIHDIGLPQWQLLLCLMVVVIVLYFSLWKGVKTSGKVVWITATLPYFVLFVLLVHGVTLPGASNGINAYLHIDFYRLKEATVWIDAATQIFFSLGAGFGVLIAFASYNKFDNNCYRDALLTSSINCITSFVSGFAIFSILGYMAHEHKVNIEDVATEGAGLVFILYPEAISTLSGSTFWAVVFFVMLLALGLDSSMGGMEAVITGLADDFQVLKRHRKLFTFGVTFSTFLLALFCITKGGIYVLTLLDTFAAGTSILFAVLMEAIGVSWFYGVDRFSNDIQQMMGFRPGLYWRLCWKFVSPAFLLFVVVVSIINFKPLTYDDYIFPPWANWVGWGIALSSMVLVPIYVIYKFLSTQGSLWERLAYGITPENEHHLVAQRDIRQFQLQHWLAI
The species entered for data set [5] is Homo sapiens. The data set is described as follows: Selectivity ratio of IC50 for human DAT to IC50 for human NET.
A further data set concerns MDR1. Kind of data set: Efflux ratio of apparent permeability from basolateral to apical side over apical to basolateral side in pig LLC-PK1 cells expressing human MDR1 at 10 umol/l after 2 hrs by LC/MS/MS analysis. The data set is classed as ADME, cell-based, Sus scrofa.
A short description of data set [6]: Dissociation constant, pKa of the compound. The data set is classed as physicochemical.
Data set [7] has as its system Rattus norvegicus. Kind of data set: Ex vivo occupancy at NET in Sprague-Dawley rat brain cortex assessed as inhibition of [3H]-nisoxetine binding at 3 mg/kg, iv measured after 1 hr by scintillation counting method. It counts as functional.
Data set [8] can be described thus: Mean residence time in Crl:CD(SD)(IGS) rat at 1 mg/kg, po administered via cassette dosing by LC/MS/MS analysis. To be noted: in vivo. It counts as ADME, organism-based.
Data set [9] is described as follows: Cmax in Crl:CD(SD)(IGS) rat at 1 mg/kg, po administered via cassette dosing by LC/MS/MS analysis. The data set is classed as ADME, organism-based. Further details: dose 1 mg/kg, route oral. Conditions: in vivo.
Data set [10] in a line: AUC in Crl:CD(SD)(IGS) rat at 1 mg/kg, po administered via cassette dosing by LC/MS/MS analysis. Conditions: in vivo. It counts as ADME, organism-based.
A short description of data set [11]: Oral bioavailability in Crl:CD(SD)(IGS) rat at 1 mg/kg administered via cassette dosing by LC/MS/MS analysis. It counts as ADME, organism-based. To be noted: in vivo.
The test system of data set [12] is Rattus norvegicus. Kind of data set: Increase in urethral resistance in po dosed rat assessed as increase in leak point pressure after 15 mins to 4 hrs by Evans blue dye leakage based assay. It counts as functional, organism-based. Conditions: Urethra.

Regarding `O=C1NCCCN1C[C@@H]1CNCCO[C@H]1c1ccc(Cl)c(F)c1`, the Ratio IC50 in the data set listed under Homo sapiens [1] came out at 150; in the data set listed under Homo sapiens [5] it was 820. The IC50 in [2] is 66 nM; in [3], 12 nM; in data set [4] it was 0.08 nM.

With `O=c1cccnn1C[C@@H]1CNCCO[C@H]1c1ccc(Cl)c(F)c1`, the Ratio IC50 in the data set listed under Homo sapiens [1] stood at 1200; in the data set filed under Homo sapiens [5], 3600. Also, the figures for the half-maximal inhibitory concentration (IC50) in [2], in data set [3] and in [4] were 240 nM, 79 nM and 0.065 nM, respectively.

For `COC(=O)c1cccn(C[C@@H]2CNCCO[C@H]2c2ccc(Cl)c(F)c2)c1=O.Cl`, the results for the IC50 in data set [2], in data set [3] and in [4] were greater than 1000 nM, 54 nM and 0.21 nM, respectively. The efflux ratio at 2 h, 10 µM in the data set on MDR1 was 7.8.

Turning to `Cc1nnc(-c2cccn(C[C@@H]3CNCCO[C@H]3c3ccc(Cl)c(F)c3)c2=O)[nH]1.Cl`, the IC50 in data set [2] was greater than 1000 nM; in data set [3] it was 67 nM; in data set [4] it was 0.64 nM. Further, in the data set with MDR1, the efflux ratio at 2 h, 10 µM was 6.8. The compound also registered a pKa in data set [6] of 9.68.

For `Cl.O=c1c(-c2nnn[nH]2)cccn1C[C@@H]1CNCCO[C@H]1c1ccc(Cl)c(F)c1`, the half-maximal inhibitory concentration (IC50) in [2] was greater than 1000 nM; in data set [3], 730 nM; in [4] it was 1.4 nM. The Occ in the data set with Rattus norvegicus [7] is on record as 12%. In the data set on MDR1, the efflux ratio at 2 h, 10 µM came out at 1.7. Also, the MRT in data set [8] came to 2 h. Moreover, in data set [9], the Cmax was 16.2 ng/mL. The AUC in data set [10] worked out at 44 ng·h/mL. Moreover, in [6], the pKa stood at 3.88. The same compound displayed a bioavailability in data set [11] of 8%.

For `Cl.O=c1[nH]c(-c2cccc(=O)n2C[C@@H]2CNCCO[C@H]2c2ccc(Cl)c(F)c2)no1`, the IC50 in [2] was greater than 1000 nM; in data set [3], greater than 1000 nM; in [4] it was 100 nM. Moreover, the efflux ratio at 2 h, 10 µM with MDR1 turned out to be 0.6. The compound also displayed a pKa in [6] of 6.35.

In the case of `Cl.O=C(O)c1cccn(C[C@@H]2CNCCO[C@H]2c2ccc(Cl)c(F)c2)c1=O`, the IC50 in [2] was greater than 1000 nM; in data set [3], greater than 1000 nM; in [4], 1.1 nM. Also, in the data set on Rattus norvegicus [12], the Activity entry is “Dose-dependent effect”. For the same compound, the Occ with Rattus norvegicus [7] is listed as 14%. The efflux ratio at 2 h, 10 µM with MDR1 stood at 2.1. The MRT in data set [8] came out at 1.9 h. This compound also showed a Cmax in data set [9] of 93.8 ng/mL. The AUC in data set [10] was determined as 197 ng·h/mL. For the same compound, in data set [6], the pKa was 2.58. The compound further yielded a bioavailability in data set [11] of 41%.

On to `O=C1CCCCN1C[C@@H]1CNCCO[C@H]1c1ccc(Cl)c(F)c1`, for which the Ratio IC50 in the data set listed under Homo sapiens [1] is 270; in the data set filed under Homo sapiens [5], 1300. For the same compound, the IC50 in data set [2] is 130 nM; in data set [3] it was 27 nM; in data set [4] it was 0.1 nM.

Take `Cl.O=c1ccccn1C[C@@H]1CNCCO[C@H]1c1ccc(Cl)c(F)c1`: the Ratio IC50 in the data set listed under Homo sapiens [1] was 1700; in the data set filed under Homo sapiens [5], greater than 13000. For the same compound, the IC50 in data set [2] was greater than 1000 nM; in [3], 130 nM; in data set [4], 0.079 nM. In addition, the Occ in the data set with Rattus norvegicus [7] worked out at 83.4%. The compound also had a mean residence time (MRT) in data set [8] of 2.1 h. The concentration in data set [9] peaked (Cmax) at 47.9 ng/mL. This compound returned an AUC in data set [10] of 107 ng·h/mL. In data set [11], the bioavailability worked out at 20%.

Regarding `Cl.O=c1[nH]c(-c2ccc(=O)n(C[C@@H]3CNCCO[C@H]3c3ccc(Cl)c(F)c3)c2)no1`, the IC50 in data set [2] is greater than 1000 nM; in data set [3], greater than 1000 nM; in [4], 25 nM. Further, in the data set with MDR1, the efflux ratio at 2 h, 10 µM is 1.6. Also, the pKa in data set [6] was determined as 5.72.

Consider `O=C1CCCN1C[C@@H]1CNCCO[C@H]1c1ccc(Cl)c(F)c1`, for which the Ratio IC50 in the data set listed under Homo sapiens [1] was 650; in the data set listed under Homo sapiens [5], 3100. Besides, the IC50 in [2] was found to be 400 nM; in data set [3] it was 85 nM; in data set [4] it was 0.13 nM.

With `CC(=O)NC[C@@H]1CNCCO[C@H]1c1ccc(Cl)c(F)c1`, the Ratio IC50 in the data set listed under Homo sapiens [1] and in the data set filed under Homo sapiens [5] was greater than 440 in each case. The IC50 in [2] and in [3] was greater than 1000 nM each time.

Regarding `Cl.O=c1[nH]c(-c2ccn(C[C@@H]3CNCCO[C@H]3c3ccc(Cl)c(F)c3)c(=O)c2)no1`, the IC50 in data set [2] is greater than 1000 nM; in data set [3], 120 nM; in data set [4], 1.9 nM. The efflux ratio at 2 h, 10 µM in the data set on MDR1 is greater than 0.8. In data set [6], this compound yielded a pKa of 5.89.

Take `Cl.O=c1[nH]c(-c2cccn(C[C@@H]3CNCCO[C@H]3c3ccc(Cl)c(F)c3)c2=O)no1`: the half-maximal inhibitory concentration (IC50) is greater than 1000 nM in [2], 380 nM in data set [3] and 1 nM in data set [4]. Further, in the data set with Rattus norvegicus [7], the Occ came out at 28.4%. Moreover, in the data set with MDR1, the efflux ratio at 2 h, 10 µM stood at 1.9. This compound also came in with an MRT in data set [8] of 1.5 h. Further, the Cmax in [9] was 17.2 ng/mL. The same compound came in with an AUC in data set [10] of 38.9 ng·h/mL. In [6], this compound gave a pKa of 5.45. This compound showed a bioavailability in data set [11] of 12%.

Usually IC50 stands for the point on the concentration scale where inhibition reaches its midpoint. A word on the efflux ratio: it is a quotient of directional permeabilities that is used to spot active efflux. One may read the pKa as the pH at which an ionisable group is half protonated. A higher pKa goes with a weaker acid or stronger base. One may read the MRT as the average time that molecules of a dose stay in the body. For orientation: Cmax means the peak of the concentration-time curve. A word on the AUC: it is concentration integrated over time. The low end stands for low exposure, the high end for high exposure. As a reminder, the bioavailability is dose-corrected exposure relative to a reference, in per cent.
